{"source": "BindingDB's records for doi:10.1021/cb500893q", "about": "(University of California Berkeley, 2015)", "data": [{"molecular_target": "T1, Platelet-activating factor acetylhydrolase IB subunit alpha2 (Mus musculus, UniProt Q61206)", "T1 sequence (Q61206 whole entry)": "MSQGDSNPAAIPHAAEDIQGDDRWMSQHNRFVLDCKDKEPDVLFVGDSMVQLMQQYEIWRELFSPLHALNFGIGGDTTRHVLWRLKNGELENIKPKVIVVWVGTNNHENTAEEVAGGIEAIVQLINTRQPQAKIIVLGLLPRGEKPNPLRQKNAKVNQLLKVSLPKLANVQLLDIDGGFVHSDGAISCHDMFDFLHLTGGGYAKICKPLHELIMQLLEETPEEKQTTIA", "experiment": "Competitive ABPP Assays in Proteomes with FP-alkyne", "details": "pH 7.5", "method": "Total protein concentrations for each fraction were adjusted to 1 mg/mL in PBS (50 μL total reaction volume). Samples were then subjected to click chemistry by the addition of 1 mM CuSO4 (1 μL of a 50x stock in DMSO), followed by TBTA (3 μL of a 17x stock in 4:1 t-butanol:DMSO), then 25 μM Rh-N3 (1 μL of a 50x stock in DMSO) and 1 mM TCEP (1 μL of a 50x stock in DMSO). Reactions were vortexed, incubated for 1 h at 25 °C, and quenched with 4x SDS-PAGE loading buffer and analyzed by in-gel fluorescence scanning.", "units": {"IC50": "µM"}, "values": [{"smiles": "Cc1ccc(C2C(C(=O)O)=CCC(c3ccc(C(C)C)cc3)N2S(=O)(=O)c2ccc(C)cc2)cc1", "note": "(stereo unspecified) [1-(4-methylbenzenesulfonyl)-2-(4-methylphenyl)-6-[4-(propan-2-yl)phenyl]-1,2,5,6-tetrahydropyridine-3-carboxylic acid (F5)]", "IC50": 4.5}, {"smiles": "Cc1ccc(C2CC=C(C(=O)O)C(c3cccc(Cl)c3)N2S(=O)(=O)c2ccc(C)cc2)cc1", "note": "(stereo unspecified) [2-(3-chlorophenyl)-1-(4-methylbenzenesulfonyl)-6-(4-methylphenyl)-1,2,5,6-tetrahydropyridine-3-carboxylic acid (J13)]", "IC50": 8.2}, {"smiles": "CCc1ccc(C2CC=C(C(=O)O)C(c3cccc(Cl)c3)N2S(=O)(=O)c2ccc(C)cc2)cc1", "note": "(stereo unspecified) [2-(3-chlorophenyl)-6-(4-ethylphenyl)-1-(4-methylbenzenesulfonyl)-1,2,5,6-tetrahydropyridine-3-carboxylic acid (J8)]", "IC50": 9.4}, {"smiles": "COCCNC(=O)C1=CCC(c2ccc(C)cc2)N(S(=O)(=O)c2ccc(C)cc2)C1c1ccc(C(C)(C)C)cc1", "note": "(stereo unspecified) [2-(4-(tert-butyl)phenyl)-N-(2-methoxyethyl)-6-(p-tolyl)-1-tosyl-1,2,5,6-tetrahydropyridine-3-carboxamide (JW1041)]", "IC50": 1.7}, {"smiles": "Cc1ccc(C2CC=C(C(=O)NC3CCCCC3)C(c3ccc(C(C)(C)C)cc3)N2S(=O)(=O)c2ccc(C)cc2)cc1", "note": "(stereo unspecified) [2-(4-(tert-butyl)phenyl)-N-cyclohexyl-6-(p-tolyl)-1-tosyl-1,2,5,6-tetrahydropyridine-3-carboxamide (JW1039)]", "IC50": "> 10"}, {"smiles": "Cc1ccc(C2CC=C(C(=O)NC3CC3)C(c3ccc(C(C)(C)C)cc3)N2S(=O)(=O)c2ccc(C)cc2)cc1", "note": "(stereo unspecified) [2-(4-(tert-butyl)phenyl)-N-cyclopropyl-6-(p-tolyl)-1-tosyl-1,2,5,6-tetrahydropyridine-3-carboxamide (JW1038)]", "IC50": 9.3}, {"smiles": "CNC(=O)C1=CCC(c2ccc(C)cc2)N(S(=O)(=O)c2ccc(C)cc2)C1c1ccc(C(C)(C)C)cc1", "note": "(stereo unspecified) [2-(4-(tert-butyl)phenyl)-N-methyl-6-(p-tolyl)-1-tosyl-1,2,5,6-tetrahydropyridine-3-carboxamide (JW1036)]", "IC50": "> 10"}, {"smiles": "Cc1ccc(S(=O)(=O)N2C(c3ccc(Cl)c(Cl)c3)CC=C(C(=O)O)C2c2ccc(Br)cc2)cc1", "note": "(stereo unspecified) [2-(4-bromophenyl)-6-(3,4-dichlorophenyl)-1-(4-methylbenzenesulfonyl)-1,2,5,6-tetrahydropyridine-3-carboxylic acid (K9)]", "IC50": 1.4}, {"smiles": "Cc1ccc(S(=O)(=O)N2C(c3ccc(Cl)cc3)CC=C(C(=O)O)C2c2ccc(Br)cc2)cc1", "note": "(stereo unspecified) [2-(4-bromophenyl)-6-(4-chlorophenyl)-1-(4-methylbenzenesulfonyl)-1,2,5,6-tetrahydropyridine-3-carboxylic acid (H4)]", "IC50": 1.1}, {"smiles": "Cc1ccc(C2CC=C(C(=O)O)C(c3ccc(F)cc3)N2S(=O)(=O)c2ccc(C)cc2)cc1", "note": "(stereo unspecified) [2-(4-fluorophenyl)-1-(4-methylbenzenesulfonyl)-6-(4-methylphenyl)-1,2,5,6-tetrahydropyridine-3-carboxylic acid (O8)]", "IC50": 2}, {"smiles": "Cc1ccc(S(=O)(=O)N2C(c3ccc(C(C)C)cc3)CC=C(C(=O)O)C2c2ccc(F)cc2)cc1", "note": "(stereo unspecified) [2-(4-fluorophenyl)-1-(4-methylbenzenesulfonyl)-6-[4-(propan-2-yl)phenyl]-1,2,5,6-tetrahydropyridine-3-carboxylic acid (B6)]", "IC50": 1.1}, {"smiles": "Cc1ccc(C2CC=C(C(=O)O)C(c3ccc(C(C)(C)C)cc3)N2S(=O)(=O)c2ccc(C)cc2)cc1", "note": "(stereo unspecified) [2-(4-tert-butylphenyl)-1-(4-methylbenzenesulfonyl)-6-(4-methylphenyl)-1,2,5,6-tetrahydropyridine-3-carboxylic acid (P11)]", "IC50": 0.8}, {"smiles": "Cc1ccc(C2CC=C(CBr)C(c3ccc(C(C)(C)C)cc3)N2S(=O)(=O)c2ccc(C)cc2)cc1", "note": "(stereo unspecified) [5-(bromomethyl)-6-(4-(tert-butyl)phenyl)-2-(p-tolyl)-1-tosyl-1,2,3,6-tetrahydropyridine (JW1058)]", "IC50": 4.6}, {"smiles": "COC(=O)C1=CCC(c2ccc(C)cc2)N(S(=O)(=O)c2ccc(C)cc2)C1c1ccc(C(C)(C)C)cc1", "note": "(stereo unspecified) [Methyl-2-(4-(tert-butyl)phenyl)-6-(p-tolyl)-1-tosyl-1,2,5,6-tetrahydropyridine-3-carboxylate (JW1068)]", "IC50": "> 10"}, {"smiles": "Cc1ccc(C2CC=C(CNC3CC3)C(c3ccc(C(C)(C)C)cc3)N2S(=O)(=O)c2ccc(C)cc2)cc1", "note": "(stereo unspecified) [N-((2-(4-(tert-butyl)phenyl)-6-(p-tolyl)-1-tosyl-1,2,5,6-tetrahydropyridin-3-yl)methyl)cyclopropanamine (JW1061)]", "IC50": 7.6}, {"smiles": "C=CCNC(=O)C1=CCC(c2ccc(C)cc2)N(S(=O)(=O)c2ccc(C)cc2)C1c1ccc(C(C)(C)C)cc1", "note": "(stereo unspecified) [N-allyl-2-(4-(tert-butyl)phenyl)-6-(p-tolyl)-1-tosyl-1,2,5,6-tetrahydropyridine-3-carboxamide (JW1043)]", "IC50": 7.5}]}]}
